Legend:
[1] = test system: Adult male Sprague-Dawley rats; experiment: FPS in fear-conditioned animals without cue re-exposure; assay type: in vivo, rat; details: 10 mg/kg AM404 or 5 mg/kg rimonabant; tested 1 hr following drug administration
Method: (§1) Fear conditioning: All training and testing trials were performed in standardized chambers optimized for the measurement of fear-potentiated startle (see Walker et al. (2002) J. Neurosci. 22: 2343-2351). Animals were pre-exposed to the chambers for 10 min on each of 2 days prior to training for habituation purposes and to minimize the effects of contextual conditioning. On 2 consecutive days following habituation, rats were returned to the same chambers and presented with 10 pairings of a light (3.7 sec) co-terminating with a 0.4-mA, 0.5-sec shock (3.6-min inter-trial interval).
Matching: Twenty-four hours following the last fear-conditioning session, animals were returned to the same chambers and presented with startle stimuli (50-msec, 95-dB white-noise bursts) in the presence or absence of the light conditioned stimulus (light-CS). Increased startle in the presence of the light-CS was taken as a measure of conditioned fear, and the magnitude of the fear response was calculated as the percentage by which startle increased when the light-CS was presented in compound with the startle stimulus versus when it was omitted (fear-potentiated startle or FPS). Using these measurements, animals were divided into groups displaying approximately equal levels of FPS prior to drug treatment and extinction training. […]

[2] = test system: Adult male Sprague-Dawley rats; experiment: Shock reactivity, baseline startle and activity measures; assay type: in vivo, rat; details: 10 mg/kg
Method: Shock Reactivity, Startle, and Activity Measures: Animals that had been previously fear-conditioned were injected with AM404, placed in the training/testing chambers, and presented with 3 unpaired shocks and 42 startle stimuli (0.4-mA, 0.5-sec shocks, 95-dB noise-burst startle). The same group of animals was returned to the same chambers 3 d later, injected with vehicle, and presented with an identical behavioral test. The values shown are the mean integrated voltages of the accelerometers measured over 200-msec periods beginning at the onset of either the shocks or the startle stimuli. Additionally, a measure of spontaneous motor activity was derived from the mean displacement of the accelerometers in the 2 min prior to delivery of the first shock, while animals were exploring the chambers.
This experiment examined behavioral effects engendered by AM404 treatment. These included the effect of 10 mg/kg AM404 on: 1) shock-reactivity as a measure of pain sensitivity; 2) baseline startle as one measure of anxiety; and 3) general motor activity within the training chambers. Animals were fear-conditioned and then returned to the training chamber several days later and administered 10 mg/kg AM404. Following drug administration, animals were presented with 3 shocks and 42 startle stimuli identical to those used in the above studies. Subsequently, the same animals were returned to the testing chamber 3 days later, injected with vehicle, and similarly tested.

[3] = test system: Adult male Sprague-Dawley rats; experiment: Shock-induced reinstatement of fear; assay type: in vivo, rat
Method: Reinstatement: Animals that had been previously fear-conditioned and extinction-trained were returned to the testing chamber 48 hours and sometimes 96 hours following extinction training and presented with 3 footshocks in the absence of the light-CS (0.4 mA, 0.5 sec shock, 2 min inter-trial interval). Immediately following the unpaired shocks, animals were tested for the presence of fear-potentiated startle (15 light-startle compounds).
Shock-induced reinstatement was examined 2 days following treatment with AM404 or vehicle during extinction. Previous studies have shown that the level of fear following reinstatement is dependent both on the level of the stressor and the amount of previous extinction, as long as the stressor is delivered in the same context as the original training context (Rescorla & Heth (1975). J. Exp. Psychol. Anim. Behav. Process. 1(1): 88-96; Bouton & King (1983) J. Exp. Psychol. Anim. Behav. Process. 9: 248-265). As animals were matched for equivalent FPS prior to extinction training, the susceptibility of animals to reinstatement can be taken as a secondary measure of the strength of extinction training, and perhaps as a preliminary measure of the resiliency of these inhibitory extinction memories to stressors. […]

[4] = test system: Adult male Sprague-Dawley rats; experiment: Extinction of conditioned fear measured by fear-potentiated startle (FPS) after extinction training; assay type: in vivo, rat; details: for fear potentiated startle (FPS) after extinction training: 10 mg/kg AM404, 5 mg/kg rimonabant, alone or together, 30 trial extinction, 24 hrs post extinction training; for fear (FPS) vs vehicle: 10 mg/kg i.p., 30-trial extinction; for extinction of fear (summary of Examples 1-10): systemic application in rats, fear-potentiated startle; for conditioned fear following extinction training vs vehicle: p<0.01
Method: Animals: Adult male Sprague-Dawley rats (Charles River, Raleigh, N.C., 350-450 g) were used in the present studies. Animals were housed in pairs in a temperature-controlled animal colony, with ad libitum access to food and water, and maintained on a 12 hr light/dark cycle.
as §1
Matching: Twenty-four hours following the last fear-conditioning session, animals were returned to the same chambers and presented with startle stimuli (50-msec, 95-dB white-noise bursts) in the presence or absence of the light conditioned stimulus (light-CS). Increased startle in the presence of the light-CS was taken as a measure of conditioned fear, and the magnitude of the fear response was calculated as the percentage by which startle increased when the light-CS was presented in compound with the startle stimulus versus when it was omitted (fear-potentiated startle or FPS). Using these measurements, animals were divided into groups displaying approximately equal levels of FPS prior to drug treatment and extinction training.
Extinction training: Five days following the last fear conditioning trial, animals were injected intraperitoneally with a test compound or its vehicle in 1 mL/kg volumes and then immediately returned to the same chambers and presented with 15, 30 or 90 presentations of the light-CS in the absence of footshock (3.7-sec light, 30-sec inter-trial interval). One hour following extinction training, a subset of animals was given a short test consisting of startle stimuli in the presence or absence of the light-CS (2-5 light-startle compounds, values shown are averages of all trials). Twenty-four hrs post-extinction training, all animals were tested for the presence of fear-potentiated startle (15 light-startle compounds).
Statistics: Comparisons were made across drug-treatment groups at each test (e.g. 24-hr groups were compared across treatment groups) using ANOVA or Student's t-test with drug or dose as the independent measure, and using Fischer's LSD test for post-hoc analysis.

[5] = PD98059 systemic and intra-amygdala infusions; AP5 intra-amygdala infusions; cited from earlier work
[6] = intra-amygdala infusions; fear-potentiated startle (AP5 also freezing); cited from earlier work
[7] = cited from earlier work
[8] = doses greater than 5 mg/kg; Herzberg et al. 1997; cited from earlier work

## CCCCC/C=C\C/C=C\C/C=C\C/C=C\CCCC(=O)Nc1ccc(O)cc1 [AM404, N-(4-hydroxyphenyl)arachidonamide]
[1]
  FPS when cue re-exposure omitted: no effect on FPS
[2]; 3 footshocks, p>0.5
  shock reactivity (pain sensitivity): little effect
[2]; p=0.45
  baseline startle (anxiety): non-significant trend toward decreased baseline startle
[2]; p>0.5
  overall locomotor activity levels in the testing chamber: little effect
[3]; 2 mg/kg and 10 mg/kg groups pooled, drug given prior to extinction training, 48 hrs prior to reinstatement with 3 footshocks, p<0.05
  reinstatement-induced conditioned fear: less reinstatement-induced conditioned fear
[3]; first 4 trials of testing following reinstatement, Trial X Drug p<0.02
  within-session extinction (change in FPS) after reinstatement: little change
[4]
  fear potentiated startle (FPS) after extinction training: significant extinction
  extinction of fear (summary of Examples 1-10): dose-dependently enhances extinction of fear
[4]; 1 hr post extinction, p<0.05
  fear (FPS) vs vehicle: significantly less fear than vehicle-treated controls
[4]; 24 hrs post-extinction, post-hoc p<0.05
  fear (FPS) vs vehicle: significantly less than vehicle-treated animals
[4]; prior to 30-trial extinction training, 24 hrs following extinction training, main effect of drug p<0.05
  extinction retention (fear in the presence of the CS): enhancement of extinction retention

## NC(CCCP(=O)(O)O)C(=O)O (stereo not shown) [AP5]
[5]
  fear conditioning: block fear conditioning
[6]
  extinction: block extinction

## N[C@@H]1CONC1=O [DCS, D-cycloserine]
[7]; in vivo
  half-life: 10 h
  route of excretion: primarily renally excreted
  time of peak blood levels after dosing: 3 to 8 h
[7]; infrequent, subjects on chronic dosing schedules, generally chronically ill with tuberculosis
  side effects: drowsiness, headache, confusion, tremor, vertigo, and memory difficulties, paresthesias, and seizure

## COc1cccc(-c2cc(=O)c3ccccc3o2)c1N [PD98059]
[5]
  fear conditioning: disrupt fear-conditioning
[6]
  extinction: disrupt extinction

## NC(=O)c1cccc(-c2cccc(OC(=O)NC3CCCCC3)c2)c1 [URB597, cyclohexylcarbamic acid 3′-carbamoylbiphenyl-3-yl ester]
[4]; 15-trial extinction, relative to animals receiving no drug
  reduction in fear within the testing session: greater reductions in fear within the testing session
[4]; 15-trial extinction, testing sessions 48 and 96 hours after extinction training
  average decrease in FPS relative to pre-extinction levels: approximately 30%
[4]; prior to 15-trial extinction training, 48 hrs following extinction training
  extinction retention (fear in the presence of the CS): enhancement of extinction retention
[4]
  extinction of fear (summary of Examples 1-10): dose-dependently enhances extinction of fear

## Cc1c(C(=O)c2cccc3ccccc23)c2cccc3c2n1[C@H](CN1CCOCC1)CO3 [WIN 55-212,2]
[4]; 5 mg/kg single dose prior to 30-trial extinction training
  extinction retention (reduction in fear): did not augment the non-significant reduction in fear
[8]
  locomotor and analgesic effects: prominent locomotor and analgesic effects

## Cc1c(C(=O)NN2CCCCC2)nn(-c2ccc(Cl)cc2Cl)c1-c1ccc(Cl)cc1 [rimonabant]
[1]
  FPS when cue re-exposure omitted: no effect on FPS
[4]; 1.5 mg/kg i.p., 90-trial extinction, 24 hrs post-extinction
  conditioned fear following extinction training vs vehicle: significantly higher levels of conditioned fear than vehicle-treated controls
[4]; 5 mg/kg i.p., 90-trial extinction, 24 hrs post-extinction
  conditioned fear following extinction training vs vehicle: significantly higher levels of conditioned fear than vehicle-treated controls
[4]
  fear potentiated startle (FPS) after extinction training: no decrease in fear potentiated startle
  extinction of fear (summary of Examples 1-10): dose-dependently blocks extinction of fear
[4]; 90-trial extinction, acute administration immediately prior to extinction training, tested 24 hrs following extinction training
  extinction retention (fear in the presence of the light-CS): profound disruption of extinction retention
